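Dose response: 5 concentrations. Exposure: 48 h. Format: 96-well plates. Endpoint: linear interpolation; highest concentration if not reached. TGI: concentration producing complete growth inhibition.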
What was measured:
Test in all cases: growth of human tumour cells (NCI), 48 h
OVCAR-8 ovarian = tested on: OVCAR-8 ovarian
UACC-62 melanoma = tested on: UACC-62 melanoma
OVCAR-5 ovarian = tested on: OVCAR-5 ovarian
RPMI-8226 leukemia = tested on: RPMI-8226 leukemia
NCI-H23 lung = tested on: NCI-H23 lung
MALME-3M melanoma = tested on: MALME-3M melanoma
RXF 393 renal = tested on: RXF 393 renal
EKVX NSCLC = tested on: EKVX NSCLC
NCI-H226 lung = tested on: NCI-H226 lung
IGROV1 ovarian = tested on: IGROV1 ovarian
MOLT-4 leukemia = tested on: MOLT-4 leukemia
DLD-1 colon = tested on: DLD-1 colon
SK-MEL-2 melanoma = tested on: SK-MEL-2 melanoma
HOP-92 NSCLC = tested on: HOP-92 NSCLC
M14 melanoma = tested on: M14 melanoma
SK-MEL-28 melanoma = tested on: SK-MEL-28 melanoma
SK-OV-3 ovarian = tested on: SK-OV-3 ovarian
U251 CNS = tested on: U251 CNS
SNB-75 CNS = tested on: SNB-75 CNS
DMS 273 small cell lung = tested on: DMS 273 small cell lung
SF-539 CNS = tested on: SF-539 CNS
HCC-2998 colon = tested on: HCC-2998 colon
NCI-H460 lung = tested on: NCI-H460 lung
HOP-62 NSCLC = tested on: HOP-62 NSCLC
HT29 colon = tested on: HT29 colon
SW-620 colon = tested on: SW-620 colon
K-562 leukemia = tested on: K-562 leukemia
786-0 renal = tested on: 786-0 renal
SNB-19 CNS = tested on: SNB-19 CNS
HL-60(TB) leukemia = tested on: HL-60(TB) leukemia
UACC-257 melanoma = tested on: UACC-257 melanoma
A549 NSCLC = tested on: A549 NSCLC
LOX IMVI melanoma = tested on: LOX IMVI melanoma
XF 498 CNS = tested on: XF 498 CNS
HCT-116 colon = tested on: HCT-116 colon
KM20L2 colon = tested on: KM20L2 colon
DMS 114 small cell lung = tested on: DMS 114 small cell lung
SF-295 CNS = tested on: SF-295 CNS
CCRF-CEM leukemia = tested on: CCRF-CEM leukemia
M19-MEL melanoma = tested on: M19-MEL melanoma
HOP-18 NSCLC = tested on: HOP-18 NSCLC
SF-268 CNS = tested on: SF-268 CNS
SN12C renal = tested on: SN12C renal
KM12 colon = tested on: KM12 colon
LXFL 529 NSCLC = tested on: LXFL 529 NSCLC
NCI-H522 lung = tested on: NCI-H522 lung
SR leukemia = tested on: SR leukemia
COLO 205 colon = tested on: COLO 205 colon
HCT-15 colon = tested on: HCT-15 colon
ACHN renal = tested on: ACHN renal
TK-10 renal = tested on: TK-10 renal
SNB-78 CNS = tested on: SNB-78 CNS
UO-31 renal = tested on: UO-31 renal
A498 renal = tested on: A498 renal
CAKI-1 renal = tested on: CAKI-1 renal
OVCAR-3 ovarian = tested on: OVCAR-3 ovarian
SK-MEL-5 melanoma = tested on: SK-MEL-5 melanoma

Work on `O=c1c(-c2cccc3ccccc23)c(-c2cccc3ccccc23)c1=O` yielded a TGI (OVCAR-8 ovarian) of 13.6 µM, a TGI (UACC-62 melanoma) greater than 100 µM and a TGI (OVCAR-5 ovarian) greater than 84.9 µM. The TGI (RPMI-8226 leukemia) was greater than 100 µM, the TGI (NCI-H23 lung) was 9.27 µM and the TGI (MALME-3M melanoma) was greater than 86.2 µM. It also gave a TGI (RXF 393 renal) of 45.7 µM, a TGI (EKVX NSCLC) greater than 39.4 µM and a TGI (NCI-H226 lung) of 6.51 µM. It also gave a TGI (IGROV1 ovarian) greater than 100 µM, a TGI (MOLT-4 leukemia) greater than 45.2 µM and a TGI (DLD-1 colon) greater than 100 µM. For the same molecule, the TGI (SK-MEL-2 melanoma) was greater than 78.2 µM, the TGI (HOP-92 NSCLC) was 39.4 µM and the TGI (M14 melanoma) was 8.51 µM. It also gave a TGI (SK-MEL-28 melanoma) greater than 100 µM, a TGI (SK-OV-3 ovarian) of 26.1 µM and a TGI (U251 CNS) of 18.4 µM. The TGI (SNB-75 CNS) was 4.07 µM, the TGI (DMS 273 small cell lung) was 13.2 µM and the TGI (SF-539 CNS) was 4.75 µM. For the same molecule, the TGI (HCC-2998 colon) was 4.95 µM, the TGI (NCI-H460 lung) was 4 µM and the TGI (HOP-62 NSCLC) was 49.1 µM. It also gave a TGI (HT29 colon) of 3.03 µM, a TGI (SW-620 colon) of 58.9 µM and a TGI (K-562 leukemia) greater than 33.3 µM. For the same molecule, the TGI (786-0 renal) was 12.7 µM, the TGI (SNB-19 CNS) was 61 µM and the TGI (HL-60(TB) leukemia) was 4.87 µM. For the same molecule, the TGI (UACC-257 melanoma) was greater than 39.6 µM, the TGI (A549 NSCLC) was 12 µM and the TGI (LOX IMVI melanoma) was 27.3 µM. For the same molecule, the TGI (XF 498 CNS) was 99 µM, the TGI (HCT-116 colon) was 37.6 µM and the TGI (KM20L2 colon) was 1.59 µM. It also gave a TGI (DMS 114 small cell lung) of 13.2 µM, a TGI (SF-295 CNS) of 2.82 µM and a TGI (CCRF-CEM leukemia) greater than 50 µM. The TGI (M19-MEL melanoma) was greater than 100 µM, the TGI (HOP-18 NSCLC) was greater than 100 µM and the TGI (SF-268 CNS) was greater than 53.7 µM. It also gave a TGI (SN12C renal) greater than 100 µM, a TGI (KM12 colon) of 21.1 µM and a TGI (LXFL 529 NSCLC) greater than 85 µM. It also gave a TGI (NCI-H522 lung) of 3.12 µM, a TGI (SR leukemia) greater than 32 µM and a TGI (COLO 205 colon) of 1.64 µM. It also gave a TGI (HCT-15 colon) greater than 52.9 µM, a TGI (ACHN renal) greater than 100 µM and a TGI (TK-10 renal) greater than 100 µM. The TGI (SNB-78 CNS) was greater than 100 µM, the TGI (UO-31 renal) was greater than 100 µM and the TGI (A498 renal) was 18.1 µM. For the same molecule, the TGI (CAKI-1 renal) was greater than 100 µM, the TGI (OVCAR-3 ovarian) was 11.6 µM and the TGI (SK-MEL-5 melanoma) was 40 µM.
